From PubChem BioAssay AID1918955 (Molecular Pharmacology Branch, DTP, NCI, 2023)

Tested on: NCI/ADR-RES complex spheroid viability
Experiment: Anticancer human tumor NCI/ADR-RES cell line growth inhibition;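 further: spheroids exposed to compounds for 7 days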;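 on viability, T/C: 100% = DMSO vehicle treated spheroids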
Conditions: for IC50: curve of first compound; for viability, T/C: stronger effect = lower value
Source text: Multicellular complex tumor spheroid response to LSD1 Inhibitor Iadademstat in combination with a variety of drugs and investigational agents in selected tumor cell lines
The current study was undertaken to assess response to LSD1 inhibitors in combination with standard-of-care drugs and investigational agents in solid tumor complex spheroid models as well as in the K-562 leukemia. Complex spheroids include a stromal component modeled by human endothelial cells (HUVEC) and fibroblasts modeled by human mesenchymal stem cells (MSCs). The concentration ranges selected for each drug and investigational agent were based upon clinically achievable concentrations if the clinical Cmax of the agent was known.
Compounds. The drugs and investigational agents used in this study are listed on Table 1. All of the agents used, including staurosporine (NSC755774) and gemcitabine (NSC613327), were obtained from the Developmental Therapeutics Program, NCI. FDA-approved anticancer drugs are available from the NCI at http://dtp.nci.nih.gov/branches/dscb/oncology_drugset_explanation.html. Drugs and investigational agents were >95% pure by proton nuclear magnetic resonance (NMR) and liquid chromatography/mass spectrometry (LC/MS). Stock solutions were prepared at 400x in DMSO, stored at -70 degrees C, and diluted in fresh medium prior to their use. The final concentration of DMSO in cell culture wells never exceeded 0.25% (v/v). The FDA-approved anticancer drug set is available from the Developmental Therapeutics Program at https://dtp.cancer.gov/organization/dscb/obtaining/available_plates.htm. All drugs and investigational agents were tested over a range starting from a high concentration at or near the clinical Cmax and decreasing in half-log increments. If the clinical Cmax for an agent had not been determined, the highest concentration tested was 10 microM.
Cell Lines. The patient-derived cancer cell (PDC) lines: 292921-168-R-J2-PDC, K24384-001-R-PDC, and 521955-158-R2-J5-PDC pancreatic carcinomas, 556581-035-R-J1 ovarian carcinoma, 324938-238-R-J1-PDC, 855422-203-R-J1-PDC and 883617-216-R-J1-PDC urothelial bladder carcinomas, 743489-274-T-PDC renal cell carcinoma, 138582-R-J1 Merkel cell tumor, K60290-347-R-J1 and K57222-313-R-J1-PDC glioblastomas, 653999-131-R-J2-PDC, LG0703-F948-PDC, and 349418-098-R-PDC non-small cell lung carcinomas, 885512-296-R-J2-PDC, 171881-019-R-J1-PDC breast carcinomas and 186277-243-T-J2-PDC and 233499-124-R-J2-PDC colon carcinomas were obtained from the NCI Patient-Derived Models Repository (PDMR, https://pdmr.cancer.gov). The established cell lines NCI/ADR-RES (RRID:CVCL_14520 and OVCAR-5 (RRID:CVCL_1628) ovarian carcinomas, 786-O (RRID:CVCL_1051) and A498 (RRID:CVCL_A498) renal cell carcinoma, NCI-H211 (ATCC, cat. CRL-5824; RRID:CVCL_1529), NCI-H196 (ATCC, cat. CRL-5823, RRID:CVCL_1509), SW 1271 (ATCC, cat. CRL-2177, RRID:CVCL_1716) and NCI-H1876 (ATCC, cat. CRL-5902, RRID:CVCL_1503) small cell lung carcinomas, MDA-MB-231 (RRID:CVCL_0062) and MDA-MB-468 (RRID:CVCL_0419)breast carcinomas (10-12). Pooled donor human umbilical vein endothelial cells (HUVEC, Lonza, cat. CC-2519) and human mesenchymal stem cells (hMSC, Lonza, cat. PT-2501) were purchased from Lonza (Walkersville, MD).
Cell Culture. All cells were maintained in an incubator at 37 degrees C and 5% CO2 with 95% humidity. The PDC lines were cultured according to standard operating procedures established by the NCI PDMR (https://pdmr.cancer.gov). Briefly all PDCs were thawed and cultured in Matrigel-coated flasks prepared with a working solution of 1X Ham's F-12 nutrient mix, without supplementation (Invitrogen, Waltham, MA, cat. 11765054), 100 U/mL penicillin-streptomycin (Invitrogen, cat. 15140122), and 2.5% Matrigel (Corning Inc., Corning, NY, cat. 354248) for the first three passages. […]

Nc1ccn(C2OC(CO)C(O)C2(F)F)c(=O)n1 (stereo not given) + NC1CC1c1ccc(-c2cccc(O)c2)cc1
IC50 (second compound 0.1 µM): < 0.000949 µM | IC50 (second compound 0.316 µM): < 0.000949 µM | IC50 (second compound 1 µM): < 0.000949 µM | IC50 (second compound 3.16 µM): < 0.000949 µM | IC50 (second compound 10 µM): < 0.000949 µM | viability, T/C (second compound 0.1 µM, first compound 0.000949 µM): 2.63% | viability, T/C (second compound 0.1 µM, first compound 0.003 µM): 2.71% | viability, T/C (second compound 0.1 µM, first compound 0.00949 µM): 2.9% | viability, T/C (second compound 0.1 µM, first compound 0.03 µM): 2.13% | viability, T/C (second compound 0.1 µM, first compound 0.0949 µM): 1.39% | viability, T/C (second compound 0.1 µM, first compound 0.3 µM): 0.69% | viability, T/C (second compound 0.316 µM, first compound 0.000949 µM): 2.24% | viability, T/C (second compound 0.316 µM, first compound 0.003 µM): 2.81% | viability, T/C (second compound 0.316 µM, first compound 0.00949 µM): 2.22% | viability, T/C (second compound 0.316 µM, first compound 0.03 µM): 1.81% | viability, T/C (second compound 0.316 µM, first compound 0.0949 µM): 1.11% | viability, T/C (second compound 0.316 µM, first compound 0.3 µM): 0.86% | viability, T/C (second compound 1 µM, first compound 0.000949 µM): 2.39% | viability, T/C (second compound 1 µM, first compound 0.003 µM): 2.3% | viability, T/C (second compound 1 µM, first compound 0.00949 µM): 2.24% | viability, T/C (second compound 1 µM, first compound 0.03 µM): 2.16% | viability, T/C (second compound 1 µM, first compound 0.0949 µM): 1.32% | viability, T/C (second compound 1 µM, first compound 0.3 µM): 0.73% | viability, T/C (second compound 3.16 µM, first compound 0.000949 µM): 2.52% | viability, T/C (second compound 3.16 µM, first compound 0.003 µM): 2.29% | viability, T/C (second compound 3.16 µM, first compound 0.00949 µM): 2.22% | viability, T/C (second compound 3.16 µM, first compound 0.03 µM): 2.18% | viability, T/C (second compound 3.16 µM, first compound 0.0949 µM): 1.17% | viability, T/C (second compound 3.16 µM, first compound 0.3 µM): 0.8% | viability, T/C (second compound 10 µM, first compound 0.000949 µM): 2.57% | viability, T/C (second compound 10 µM, first compound 0.003 µM): 2.57% | viability, T/C (second compound 10 µM, first compound 0.00949 µM): 3.02% | viability, T/C (second compound 10 µM, first compound 0.03 µM): 2.33% | viability, T/C (second compound 10 µM, first compound 0.0949 µM): 1.52% | viability, T/C (second compound 10 µM, first compound 0.3 µM): 1%

O=C(c1cc(Cc2n[nH]c(=O)c3ccccc23)ccc1F)N1CCN(C(=O)C2CC2)CC1 + NC1CC1c1ccc(-c2cccc(O)c2)cc1
IC50 (second compound 0.1 µM): > 10 µM | IC50 (second compound 0.316 µM): > 10 µM | IC50 (second compound 1 µM): > 10 µM | IC50 (second compound 3.16 µM): > 10 µM | IC50 (second compound 10 µM): > 10 µM | viability, T/C (second compound 0.1 µM, first compound 0.0316 µM): 112% | viability, T/C (second compound 0.1 µM, first compound 0.1 µM): 108% | viability, T/C (second compound 0.1 µM, first compound 0.316 µM): 107% | viability, T/C (second compound 0.1 µM, first compound 1 µM): 105% | viability, T/C (second compound 0.1 µM, first compound 3.16 µM): 99.5% | viability, T/C (second compound 0.1 µM, first compound 10 µM): 91.8% | viability, T/C (second compound 0.316 µM, first compound 0.0316 µM): 111% | viability, T/C (second compound 0.316 µM, first compound 0.1 µM): 115% | viability, T/C (second compound 0.316 µM, first compound 0.316 µM): 108% | viability, T/C (second compound 0.316 µM, first compound 1 µM): 103% | viability, T/C (second compound 0.316 µM, first compound 3.16 µM): 106% | viability, T/C (second compound 0.316 µM, first compound 10 µM): 95% | viability, T/C (second compound 1 µM, first compound 0.0316 µM): 106% | viability, T/C (second compound 1 µM, first compound 0.1 µM): 106% | viability, T/C (second compound 1 µM, first compound 0.316 µM): 103% | viability, T/C (second compound 1 µM, first compound 1 µM): 104% | viability, T/C (second compound 1 µM, first compound 3.16 µM): 99.4% | viability, T/C (second compound 1 µM, first compound 10 µM): 80.1% | viability, T/C (second compound 3.16 µM, first compound 0.0316 µM): 110% | viability, T/C (second compound 3.16 µM, first compound 0.1 µM): 111% | viability, T/C (second compound 3.16 µM, first compound 0.316 µM): 103% | viability, T/C (second compound 3.16 µM, first compound 1 µM): 97.3% | viability, T/C (second compound 3.16 µM, first compound 3.16 µM): 96.7% | viability, T/C (second compound 3.16 µM, first compound 10 µM): 88.6% | viability, T/C (second compound 10 µM, first compound 0.0316 µM): 91.8% | viability, T/C (second compound 10 µM, first compound 0.1 µM): 95.3% | viability, T/C (second compound 10 µM, first compound 0.316 µM): 96.4% | viability, T/C (second compound 10 µM, first compound 1 µM): 94.4% | viability, T/C (second compound 10 µM, first compound 3.16 µM): 88.7% | viability, T/C (second compound 10 µM, first compound 10 µM): 74.5%
